Read-outs that look alike come from different tables or passages of the source.
What was measured:
[1] = system: recombinant VACV (vL1Ri) EGFP under synthetic early/late promoter; type: cell-based, vaccinia virus
[2] = system: E9/A20/D4 dependent in vitro DNA synthesis; details: cited from earlier work
vaccinia virus (VACV) = assay: microbe, parasite or virus in culture; type: cell-based; details: for IC50: Orthopoxvirus vaccinia
[3] = system: VACV viral factories in BSC-1 cells; type: cell-based, vaccinia virus
A4 protein = type: cell-based, vaccinia virus
E3 protein = type: cell-based, vaccinia virus

Row | Structure (SMILES) | antiviral activity (in words) (vaccinia virus (VACV)) | further results
1 | Nc1ccn(C[C@@H](CO)OCP(=O)(O)O)c(=O)n1.O.O [CDV, cidofovir, reference compound] | – | EGFP expression [1]: equally effective; EGFP expression, treatment post vL1Ri adsorption [1]: comparable EGFP expression and CPE to DMSO vehicle
2 | Cc1ccc2c(Sc3ccc(Cl)cc3)c(C(=O)O)[nH]c2c1 [Compound 1, 3-((4-Chlorophenyl)thio)-6-methyl-1H-indole-2-carboxylic acid] | – | inhibition of in vitro DNA synthesis [2]: ability to inhibit in vitro DNA synthesis
3 | O=C(O)c1[nH]c2ccccc2c1Sc1ccc(Cl)cc1 [Compound 1d] | loss of activity | –
4 | COc1cccc2[nH]c(C(=O)O)c(Sc3ccc(Cl)cc3)c12 [Compound 1i] | loss of activity | –
5 | Cc1ccc2c(c1)c(Sc1ccc(Cl)cc1)c(C(=O)O)n2C [Compound 2] | loss | –
6 | CCn1c(C(=O)O)c(Sc2ccc(Cl)cc2)c2cc(C)ccc21 [Compound 3] | no gain in activities | –
7 | COC(=O)c1[nH]c2cc(C)ccc2c1Sc1ccc(Cl)cc1 [Compound 6] | – | fold improvement in antiviral potency over parent 1 (vaccinia virus (VACV)): ~ 4 fold
8 | COC(=O)c1[nH]c2ccc(C)cc2c1Sc1ccc(Cl)cc1 [Compound 7] | lost activity | –
9 | COC(=O)c1[nH]c2c(C)cccc2c1Sc1ccc(Cl)cc1 [Compound 8] | – | fold improvement in antiviral potency over parent 1 (vaccinia virus (VACV)): ~ 4 fold
10 | COC(=O)c1[nH]c2cccc(C)c2c1Sc1ccc(Cl)cc1 [Compound 9] | – | fold improvement in antiviral potency over parent 1 (vaccinia virus (VACV)): ~ 4 fold
11 | Cc1ccc2c(Sc3ccccc3)c(C(=O)O)[nH]c2c1 [Compound 18] | abolished its antiviral activity | –
12 | Cc1ccc2c(Sc3cccc(F)c3)c(C(=O)O)[nH]c2c1 [Compound 18b] | – | IC50 (vaccinia virus (VACV); read-out: IC50 (antiviral activity, Table 2)): 56 µM
13 | Cc1ccc2c(Sc3ccc(Br)cc3)c(C(=O)O)[nH]c2c1 [Compound 18c] | loss of activity | –
14 | Cc1ccc(Sc2c(C(=O)O)[nH]c3cc(C)ccc23)cc1 [Compound 18d] | failed to show antiviral activities | –
15 | COc1ccc(Sc2c(C(=O)O)[nH]c3cc(C)ccc23)cc1 [Compound 18e] | failed to show antiviral activities | –
16 | Cc1ccc2c(Sc3ccc(C(=O)O)cc3)c(C(=O)O)[nH]c2c1 [Compound 18f] | loss of activity | –
17 | COc1ccc(Sc2c(C(=O)O)[nH]c3cccc(C)c23)cc1 [Compound 19] | failed to show antiviral activities | –
18 | Cc1ccc(Sc2c(C(=O)O)[nH]c3cccc(C)c23)cc1 [Compound 19a] | failed to show antiviral activities | –
19 | COC(=O)c1ccc(Sc2c(C(=O)O)[nH]c3cccc(C)c23)cc1 [Compound 19b] | failed to show antiviral activities | –
20 | Cc1cccc2[nH]c(C(=O)O)c(Sc3ccc([N+](=O)[O-])cc3)c12 [Compound 19c] | loss of activity | –
21 | Cc1ccc2c(Sc3cc(Cl)cc(Cl)c3)c(CCC(N)=O)[nH]c2c1 [Compound 24a, 3-(3-((3,5-Dichlorophenyl)thio)-6-methyl-1H-indol-2-yl)propanamide] | – | EGFP expression [1]: significantly reduced; EGFP expression, treatment post vL1Ri adsorption [1]: appreciable EGFP expression; cytopathic effect (CPE) [1]: lowered; BrdU labeling of viral factories [3]: significantly suppressed; A4 late protein level (A4 protein): dramatically reduced in a dose-dependent manner; E3 early protein level (E3 protein): slight decrease
22 | Cc1ccc2c(Sc3cc(Cl)cc(Cl)c3)c(CCCC(N)=O)[nH]c2c1 [Compound 24c, 4-(3-((3,5-Dichlorophenyl)thio)-6-methyl-1H-indol-2-yl)butanamide] | – | fold decrease in antiviral potency (vaccinia virus (VACV)): ~ 5 fold
23 | Cc1ccc2c(Sc3cc(Cl)cc(Cl)c3)c(CCC(=O)O)[nH]c2c1 [Compound 24d, 3-(3-((3,5-Dichlorophenyl)thio)-6-methyl-1H-indol-2-yl)propanoic acid] | – | fold decrease in antiviral potency (vaccinia virus (VACV)): ~ 5 fold
24 | CCCCCCNC(=O)CCc1[nH]c2cc(C)ccc2c1Sc1cc(Cl)cc(Cl)c1 [Compound 24e, 3-(3-((3,5-Dichlorophenyl)thio)-6-methyl-1H-indol-2-yl)-N-hexylpropanamide] | loss of activity | –
25 | COC(=O)c1[nH]c2cc(C)ccc2c1Sc1cc(Cl)cc(Cl)c1 [Compound 27] | loss of activity | –
26 | CNC(=O)c1[nH]c2cc(C)ccc2c1Sc1cc(Cl)cc(Cl)c1 [Compound 28] | loss of activity | –
27 | Cc1ccc2c(Sc3cc(Cl)c(Cl)cc3Cl)c(C(=O)O)[nH]c2c1 [Compound 30] | – | IC50 (vaccinia virus (VACV); read-out: IC50 (antiviral activity, Table 3)): 21 µM
28 | Cc1ccc2c(Sc3ccc(C(F)(F)F)cc3[N+](=O)[O-])c(C(=O)O)[nH]c2c1 [Compound 31] | loss of activity | –
